Starred links: 1 amine or outer side, 2 acyl side, 3 side chain; linkers in the order of their positions; H or OH if unused. Positions of bridges follow the written chain, without caps; N, C: chain ends. Non-standard residues stand in square brackets, D forms with d. Residues, ends and D or L forms follow the SMILES beside them. *: point of attachment. Orn(4R-OH,5R-OH) = O=C([C@H](C[C@@H](O)[C@@H](O)N[*:3])N[*:1])[*:2]; hTyr(3S-OH,4S-OH) = N[C@H](C(=O)O)[C@H](O)[C@@H](O)c1ccc(O)cc1; Benzoyl(4-dodecyloxy) = CCCCCCCCCCCCOc1ccc(C(=O)*)cc1; Benzoyl(4-OC10H21) = CCCCCCCCCCOc1ccc(C(=O)*)cc1; Pro(3S-OH,4S-Me) = C[C@H]1CN[C@H](C(=O)O)[C@H]1O; X20 = CCCCCCCCCCCCCCOc1ccc(C(=O)*)cc1; X3 = CCCCCCCCCCCCCCSc1ccc(C(=O)*)cc1; X1 = CCCCCCCCCCCCSc1ccc(C(=O)*)cc1; X11 = CCCCCCCCOc1ccc(OCC(=O)*)cc1; Hyp = O=C(O)[C@@H]1C[C@@H](O)CN1; X6 = CCCCCCCCCCSc1ccc(C(=O)*)cc1; X7 = CCCCCCCCSc1ccc(C(=O)*)cc1
How the values were obtained:
Candida albicans A-26 [1] = test: Therapeutic activity against Candida albicans A-26 infection in mice, ED50; assay type: in vivo; settings: Candida albicans, A26, sc, doses 0, 4 and 24 hours post infection, increase in survival time vs control, Reed-Muench, read-out: ED50
Description: (§1) The results of in vivo tests to evaluate the effectiveness of the compounds of Examples 3 and 4 against an infection caused by Candida albicans A-26 in mice are given in Table 13, where activity is measured by the ED50 value (the dose in mg/kg. required to cure 50% of the test animals). In a separate test, the results of which are also summarized in Table 13, activity is indicated by the lowest dose at which a significant anti-fungal effect is observed. In this test, groups of male albino mice (specific pathogen free), weighing 18 to 20 grams, are infected intravenously with Candida albicans A-26. The animals are X-irradiated 24 hours prior to infection at about 50 roentgens per minute for 8 minutes (400 total dose) to reduce immune responses to the infecting organism. At 0, 4, and 24 hours post infection each group of mice is given graded doses subcutaneously of the test compound as a suspension in 33% polyethylene glycol (PEG)-water. The day of death for each animal is recorded.
(§2) *Dosage Schedules: A. = 40, 20, 15 and 10 mg/kg; Dosages given 0, 4, and
(§3) 24 hours post injection as suspension of test compound in 30% PEGH2
(§4) O. Number of mice receiving test compounds at each dosage level: 6 mice
(§5) per group. Number of mice in control (untreated) group: 10 mice per group
**As measured by increase in survival time of treated animals versus
control, calculated by method of Reed v Mueuch, American J. Hygiene, 27,

Candida albicans A-26 [2] = test: Therapeutic activity against Candida albicans A-26 infection in X-irradiated mice, lowest active dose; assay type: in vivo; settings: A26, light or radiation study, sc, read-out: Lowest Active Dose, X-irradiated mice, subcutaneous at 0, 4 and 24 hours post infection, survival
Description: as §1, §2, §3, §4, §5

in vivo = settings: mouse, po, 416 mg/kg

| SMILES | ED50 (Candida albicans A-26 [1]) [mg/kg] | minimal effective dose (Candida albicans A-26 [2]) [mg/kg] | Cmax (in vivo) [ng/mL] |
| --- | --- | --- | --- |
| CCCCCCCCOc1ccc(OCC(=O)N[C@H]2C[C@@H](O)[C@@H](O)NC(=O)[C@@H]3[C@@H](O)[C@@H](C)CN3C(=O)[C@H]([C@@H](C)O)NC(=O)[C@H]([C@H](O)[C@@H](O)c3ccc(O)cc3)NC(=O)[C@@H]3C[C@@H](O)CN3C(=O)[C@H]([C@@H](C)O)NC2=O)cc1 [drawing 179] (X11-[Orn(4R-OH,5R-OH)]T[Hyp][hTyr(3S-OH,4S-OH)]T[Pro(3S-OH,4S-Me)]; lactam 1-C) | 16.8 | 10 | – |
| CCCCCCCCCCOc1ccc(C(=O)N[C@H]2C[C@@H](O)[C@@H](O)NC(=O)[C@@H]3[C@@H](O)[C@@H](C)CN3C(=O)[C@H]([C@@H](C)O)NC(=O)[C@H]([C@H](O)[C@@H](O)c3ccc(O)cc3)NC(=O)[C@@H]3C[C@@H](O)CN3C(=O)[C@H]([C@@H](C)O)NC2=O)cc1 [drawing 182] ({Benzoyl(4-OC10H21)}-[Orn(4R-OH,5R-OH)]T[Hyp][hTyr(3S-OH,4S-OH)]T[Pro(3S-OH,4S-Me)]; lactam 1-C) | – | – | < 100 |
| CCCCCCCCCCCCOc1ccc(C(=O)N[C@H]2C[C@@H](O)[C@@H](O)NC(=O)[C@@H]3[C@@H](O)[C@@H](C)CN3C(=O)[C@H]([C@@H](C)O)NC(=O)[C@H]([C@H](O)[C@@H](O)c3ccc(O)cc3)NC(=O)[C@@H]3C[C@@H](O)CN3C(=O)[C@H]([C@@H](C)O)NC2=O)cc1 [drawing 183] ({Benzoyl(4-dodecyloxy)}-[Orn(4R-OH,5R-OH)]T[Hyp][hTyr(3S-OH,4S-OH)]T[Pro(3S-OH,4S-Me)]; lactam 1-C) | – | – | 5000 |
| CCCCCCCCCCCCCCOc1ccc(C(=O)N[C@H]2C[C@@H](O)[C@@H](O)NC(=O)[C@@H]3[C@@H](O)[C@@H](C)CN3C(=O)[C@H]([C@@H](C)O)NC(=O)[C@H]([C@H](O)[C@@H](O)c3ccc(O)cc3)NC(=O)[C@@H]3C[C@@H](O)CN3C(=O)[C@H]([C@@H](C)O)NC2=O)cc1 [drawing 184] (X20-[Orn(4R-OH,5R-OH)]T[Hyp][hTyr(3S-OH,4S-OH)]T[Pro(3S-OH,4S-Me)]; lactam 1-C) | – | – | 5000 |
| CCCCCCCCSc1ccc(C(=O)N[C@H]2C[C@@H](O)[C@@H](O)NC(=O)[C@@H]3[C@@H](O)[C@@H](C)CN3C(=O)[C@H]([C@@H](C)O)NC(=O)[C@H]([C@H](O)[C@@H](O)c3ccc(O)cc3)NC(=O)[C@@H]3C[C@@H](O)CN3C(=O)[C@H]([C@@H](C)O)NC2=O)cc1 [drawing 185] (X7-[Orn(4R-OH,5R-OH)]T[Hyp][hTyr(3S-OH,4S-OH)]T[Pro(3S-OH,4S-Me)]; lactam 1-C) | – | – | < 100 |
| CCCCCCCCCCSc1ccc(C(=O)N[C@H]2C[C@@H](O)[C@@H](O)NC(=O)[C@@H]3[C@@H](O)[C@@H](C)CN3C(=O)[C@H]([C@@H](C)O)NC(=O)[C@H]([C@H](O)[C@@H](O)c3ccc(O)cc3)NC(=O)[C@@H]3C[C@@H](O)CN3C(=O)[C@H]([C@@H](C)O)NC2=O)cc1 [drawing 186] (X6-[Orn(4R-OH,5R-OH)]T[Hyp][hTyr(3S-OH,4S-OH)]T[Pro(3S-OH,4S-Me)]; lactam 1-C) | – | – | 5000 |
| CCCCCCCCCCCCSc1ccc(C(=O)N[C@H]2C[C@@H](O)[C@@H](O)NC(=O)[C@@H]3[C@@H](O)[C@@H](C)CN3C(=O)[C@H]([C@@H](C)O)NC(=O)[C@H]([C@H](O)[C@@H](O)c3ccc(O)cc3)NC(=O)[C@@H]3C[C@@H](O)CN3C(=O)[C@H]([C@@H](C)O)NC2=O)cc1 [drawing 187] (X1-[Orn(4R-OH,5R-OH)]T[Hyp][hTyr(3S-OH,4S-OH)]T[Pro(3S-OH,4S-Me)]; lactam 1-C) | – | – | 30000 |
| CCCCCCCCCCCCCCSc1ccc(C(=O)N[C@H]2C[C@@H](O)[C@@H](O)NC(=O)[C@@H]3[C@@H](O)[C@@H](C)CN3C(=O)[C@H]([C@@H](C)O)NC(=O)[C@H]([C@H](O)[C@@H](O)c3ccc(O)cc3)NC(=O)[C@@H]3C[C@@H](O)CN3C(=O)[C@H]([C@@H](C)O)NC2=O)cc1 [drawing 188] (X3-[Orn(4R-OH,5R-OH)]T[Hyp][hTyr(3S-OH,4S-OH)]T[Pro(3S-OH,4S-Me)]; lactam 1-C) | – | – | 230000 |
